Earlier results in patent US20110034442A1, “Use and Methods of Use for an Antagonist of the Serotin3 Receptor (5-HT3) and a Selective Modulator of Chloride Channels for the Treatment of Addiction to or Dependence on Medicines/Drugs or Nervous System Disorders” (priority 2007, published 2011).
Counter-ions that a name gives are not always drawn. Like-named read-outs stand apart in the source and are kept apart here.

Key:
[1] = system: K+-evoked [3H]ACh efflux; details: slices from rat entorhinal cortex preloaded with [3H]choline
[2] = system: alpha(4)-subunit gene expression; details: ethanol withdrawal
[3] = system: alcohol-dependent subjects; details: 15 alcohol-dependent subjects
[4] = pH 7.4
[5] = system: rat; details: elevated plus maze
[6] = system: male rats
[7] = system: acetylcholine release; details: GABA(A) receptor antagonist given with ondansetron; rat frontal cortex
[8] = system: rats; details: rats receiving combined cocaine-diazepam compared to cocaine alone or diazepam alone
[9] = flumazenil 10 mg/kg, ondansetron 0.3 mg/kg, R(−)-alpha-metylhistamine 10 mg/kg
[10] = in contrast to naltrexone
[11] = pre-treatment 12 mg orally over 24 h; amphetamine 15 mg orally
[12] = system: alcohol dependent subjects; details: 4 microg/kg b.i.d.
[13] = system: mice
[14] = system: adolescents who had alcohol dependence; details: 4 microg/kg b.i.d.
[15] = system: healthy males; details: pretreatment, nine healthy males
[16] = system: cocaine-dependent men and women
[17] = system: healthy human volunteers; details: pretreatment 0.15 mg/kg i.v.; oral D-amphetamine 0.5 mg/kg; subjects with robust responses
[18] = system: Wistar rats; details: 0.1, 0.5, 1, 2 mg/kg intra-peritoneally, 30 minutes prior to d-amphetamine
[19] = not given; remark: listed apart in the source
[20] = target: T1, 5-HT3 receptors (Homo sapiens, UniProt P46098); details: in vivo
T1 sequence (P46098 24-478): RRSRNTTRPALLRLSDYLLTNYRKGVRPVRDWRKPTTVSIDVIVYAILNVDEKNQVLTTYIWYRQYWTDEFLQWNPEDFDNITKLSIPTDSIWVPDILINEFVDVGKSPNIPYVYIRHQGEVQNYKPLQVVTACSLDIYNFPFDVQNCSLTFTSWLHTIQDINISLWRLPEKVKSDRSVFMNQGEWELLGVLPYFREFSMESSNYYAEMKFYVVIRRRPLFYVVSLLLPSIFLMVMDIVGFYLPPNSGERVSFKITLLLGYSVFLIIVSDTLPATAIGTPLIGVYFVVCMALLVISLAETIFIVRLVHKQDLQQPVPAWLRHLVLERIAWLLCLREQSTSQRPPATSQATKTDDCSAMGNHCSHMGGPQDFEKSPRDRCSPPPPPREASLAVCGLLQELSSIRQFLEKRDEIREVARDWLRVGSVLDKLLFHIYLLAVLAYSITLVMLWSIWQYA

[21] = system: early-onset alcoholism; details: 16 microg/kg twice daily; early-onset compared with late-onset alcoholism
[22] = in vivo
[23] = system: mice; details: 0.1 and 1 mg/kg PO
[24] = system: rats
[25] = not given; remark: listed apart in the source
[26] = in vivo; remark: listed apart in the source
[27] = in vivo; remark: listed apart in the source

In the case of `CN1C2CCCC1CC(NC(=O)c1nn(C)c3ccccc13)C2` (centres unmarked) [granisetron], the “K+-evoked [3H]ACh efflux” value [1] is given as “concentration-dependent increase”.
For `CCOC(=O)c1ncn2c1CN(C)C(=O)c1cc(F)ccc1-2` [flumazenil, ethyl 8-fluoro-5,6-dihydro-5-methyl-6-oxo-4H-imidazo[1,5-a](1,4)benzodiazepine-3-carboxylate], the “up-regulation of alpha(4)-subunit gene expression” value [2] is given as “selectively prevented the up-regulation”, the “anxiolytic or anxiogenic effect” value [3] is given as “neither anxiolytic nor anxiogenic” and the “octanol:buffer partition coefficient” value [4] is given as 14 to 1. For the same compound, the “K+-evoked [3H]ACh efflux” value [1] was “enhanced”, the anxiolytic effects [5] was “did not produce any anxiolytic effects” and the “decrease in open arm entries produced by withdrawal from ethanol treatment” value [5] was “blocked these changes”. The “changes of the self-stimulation” value [6] was “did not cause any substantial changes”, the “peak increase of acetylcholine release over basal levels” value [7] was 259% and the “seizures and incidence of death” value [8] was “unmask seizures and increase the incidence of death”. For the same compound, the “attenuation of scopolamine-induced deficits” value (shortened to “attenuation”) [9] was “neither flumazenil 10 mg/kg, ondansetron 0.3 mg/kg nor R(−)-alpha-metylhistamine 10 mg/kg attenuated”, the “solubility in acidic aqueous solutions” value (acidic aqueous solutions) was “slightly soluble” and the solubility in water (water) was “insoluble”.
In the case of `C=C1CC[C@@]2(O)[C@H]3Cc4ccc(O)c5c4[C@@]2(CCN3CC2CC2)[C@H]1O5` [nalmefene, 17(cyclopropylmethyl)-4,5-alpha-epoxy-6-methylenemorphinan-3,14-diol,hydrochloride salt], the hepatocellular injury [10] is listed as “does not cause hepatocellular injury”.
In the case of `C[C@@H](N)Cc1c[nH]cn1` [R(−)-alpha-metylhistamine], the “attenuation” value [9] is given as “neither flumazenil 10 mg/kg, ondansetron 0.3 mg/kg nor R(−)-alpha-metylhistamine 10 mg/kg attenuated”.
For `Cc1nccn1CC1CCc2c(c3ccccc3n2C)C1=O` (racemic) [ondansetron, (±)1,2,3,9-tetrahydro-9-methyl-3-[(2-methyl-1H-imidazol-1-yl)methyl]-4H-carbazol-4-one, monohydrochlororide, dehydrate], the “amphetamine-induced decrease in self-ratings of hunger” value [11] is listed as “significantly attenuated”, the overall craving ([12]; early-onset alcoholics) is listed as “reduced overall craving significantly” and the overall craving ([12]; late-onset alcoholics, compared with placebo) is listed as “not late-onset alcoholics”. The “anxiolytic action compared to naive mice” value ([13]; 0.01, 0.1 and 1 mg/kg i.p.) was “significant anxiolytic action”, the “potency compared to diazepam” value ([13]; diazepam 1 mg/kg) was “less potent” and the “craving, Adolescent Obsessive-Compulsive Drinking Scale” value [14] was “reduction”. The drinks per day ([14]; 8 weeks) was “significant decrease”, the safety and tolerability ([14]; oral, 8 weeks, 12 adolescents) was “safe and well tolerated” and the “effects of amphetamine on blood pressure or psychomotor performance tests” value [15] was “not on blood pressure or psychomotor performance tests”. The “effects of amphetamine on hunger and subjective state” value [15] was “attenuated”, the “tolerability, adverse events” value ([16]; 0.25 mg, 1.0 mg, or 4.0 mg twice daily, 10 weeks) was “well tolerated, causing no serious adverse events” and the “dropout rate among all treatment groups” value ([16]; 4.0 mg twice daily) was “lowest dropout rate”. The “percentage of participants with a cocaine-free week compared with the placebo group” value ([16]; 4.0 mg twice daily, p=0.02) was “greater rate of improvement”, the “activation-euphoria responses to D-amphetamine” value [17] was “attenuated responses” and the average stereotypic score [18] was “decreased”. The “mean number of head dippings and crossings in the hole board test” value [18] was “significantly decreased”, the “expression of sensitization and tolerance” value ([19]; administered during withdrawal from intermittent and continuous cocaine) was “blockade of the expression of sensitization and tolerance” and the “development of behavioral tolerance” value ([19]; continuous cocaine group) was “attenuated the development of behavioral tolerance”. For the same compound, the development of sensitization ([19]; daily injections with cocaine, inverted U-shape dose-response curve) was “significantly blocked the development of sensitization”, the “subsequent behavioral response to cocaine” value ([19]; daily injections, saline control subjects) was “no consistent or significant effect” and the “K+-evoked [3H]ACh efflux” value [1] was “concentration-dependent increase”. For the same compound, the “antagonism of the effects of amphetamine” value [20] was “did not antagonize the effects of amphetamine”, the “alleviation of overall mood disturbance, fatigue, vigor, confusion/bewilderment and depression” value [21] was “greater therapeutic efficacy” and the “ensuing facilitation of self-stimulation after high-dose nicotine” value [22] was “not the ensuing facilitation”. The “initial depression of self-stimulation by high-dose nicotine” value [22] was “reduced the initial depression”, the self-stimulation [22] was “no effect” and the “number of shocks taken” value [23] was “increased”. For the same compound, the “changes of the self-stimulation” value [6] was “did not cause any substantial changes”, the “anxiolytic action during withdrawal from chronic chlordiazepoxide” value ([24]; rats (Rezazadeh 1992)) was “mixed results” and the “efficacy in reversing various aspects of benzodiazepine withdrawal” value ([24]; rats, three tests, flumazenil given during chronic chlordiazepoxide (Prather 1993)) was “Inconsistent results”. For the same compound, the “cocaine intake the following day” value ([25]; administered 30 min before the cocaine session) was “no effect”, the “cocaine self-administration the following day” value ([25]; given 3.5 h after intravenous cocaine self-administration) was “attenuate self-administration the following day” and the “cocaine self-administration and sensitization” value ([25]; given after each second cocaine regimen dose or during the second withdrawal period) was “inhibited”. For the same compound, the “attenuation” value [9] was “neither flumazenil 10 mg/kg, ondansetron 0.3 mg/kg nor R(−)-alpha-metylhistamine 10 mg/kg attenuated”, the “solubility in water and normal saline” value (racemic form, water and normal saline) was “soluble” and the “increased behavioral suppression following withdrawal from ethanol, nicotine and cocaine” value [26] was “highly effective inhibitor”.
In the case of `CN1[C@@H]2CC[C@H]1C[C@@H](OC(=O)c1cc(Cl)cc(Cl)c1)C2` [MDL 72222], the “K+-evoked [3H]ACh efflux” value [1] is given as “concentration-dependent increase”.
In the case of `O=Cc1c(N2CCN(Cc3ccc4c(c3)OCO4)CC2)[nH]c2ccccc12` [VA21B7, 3-[2-(4′-piperonylpiperazinyl)indolyl]carboxaldehyde], the “release of suppressed behavior” value [27] is listed as “able to release suppressed behavior”.
